Experimental data published in ChEMBL document CHEMBL1124095, “Resolution of the nonsteroidal antiandrogen 4'-cyano-3-[(4-fluorophenyl)sulfonyl]-2-hydroxy-2-methyl-3'- (trifluoromethyl)-propionanilide and the determination of the absolute configuration of the active enantiomer” (1988).

species: Rattus norvegicus; assay: Antiandrogen activity in male rats; type: functional

Point of comparison: `C[C@](O)(CSc1ccc(F)cc1)C(=O)Nc1ccc(C#N)c(C(F)(F)F)c1`, ED50 0.5 mg/kg. Against it:
- CC(O)(CSc1ccc(F)cc1)C(=O)Nc1ccc(C#N)c(C(F)(F)F)c1 (stereo unspecified) — the same, 0.5 mg/kg
- C[C@](O)(CS(=O)(=O)c1ccc(F)cc1)C(=O)Nc1ccc(C#N)c(C(F)(F)F)c1 [(R)-BICALUTAMIDE] — the same, 0.5 mg/kg
- C[C@@](O)(CS(=O)(=O)c1ccc(F)cc1)C(=O)Nc1ccc(C#N)c(C(F)(F)F)c1 [(S)-BICALUTAMIDE] — 60-fold higher, 30 mg/kg
- C[C@@](O)(CSc1ccc(F)cc1)C(=O)Nc1ccc(C#N)c(C(F)(F)F)c1 — 60-fold higher, 30 mg/kg
- CC(O)(CS(=O)(=O)c1ccc(F)cc1)C(=O)Nc1ccc(C#N)c(C(F)(F)F)c1 (stereo unspecified) [BICALUTAMIDE] — the same, 0.5 mg/kg
